{"source": "patent US6498163B1", "about": "“Pyrido[2,3-D]pyrimidines and 4-aminopyrimidines as inhibitors of cellular proliferation” (Warner-Lambert Company, priority 1997, dated 2002)", "molecular_target": "c-Src (Homo sapiens, UniProt P12931)", "sequence (P12931 whole entry, species assumed)": "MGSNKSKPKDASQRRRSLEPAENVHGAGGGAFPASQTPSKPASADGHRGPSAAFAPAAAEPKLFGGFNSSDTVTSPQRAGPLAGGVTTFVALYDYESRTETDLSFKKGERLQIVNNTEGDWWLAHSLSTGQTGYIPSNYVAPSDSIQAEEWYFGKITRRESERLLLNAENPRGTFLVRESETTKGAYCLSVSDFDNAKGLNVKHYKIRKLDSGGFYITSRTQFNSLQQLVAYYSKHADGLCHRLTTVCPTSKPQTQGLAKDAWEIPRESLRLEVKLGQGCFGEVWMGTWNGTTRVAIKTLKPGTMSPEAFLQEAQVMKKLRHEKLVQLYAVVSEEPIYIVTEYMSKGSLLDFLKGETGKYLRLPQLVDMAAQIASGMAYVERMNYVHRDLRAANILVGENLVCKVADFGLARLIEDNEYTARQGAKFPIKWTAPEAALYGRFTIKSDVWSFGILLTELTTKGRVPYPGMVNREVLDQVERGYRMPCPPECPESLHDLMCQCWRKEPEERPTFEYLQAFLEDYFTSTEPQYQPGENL", "assay": "c-Src protein kinase assay", "format": "biochemical", "conditions": "Table 5", "description": "Several of the invention compounds have been evaluated in a standard assay to measure their ability to inhibit cellular Src protein kinase (c-Src). […] The assay was carried out as follows:\nC-Src kinase was purified from baculovirus infected insect cell lysates using an antipeptide monoclonal antibody directed against the N-terminal amino acids (amino acids 2-17) of c-Src. The antibody, covalently linked to 0.65 μm latex beads, was added to a suspension of insect cell lysis buffer comprised of 150 mM NaCl, 50 mM Tris pH 7.5, 1 mM DTT, 1% NP-40, 2 mM EGTA, 1 mM sodium vanadate, 1 mM PMSF, 1 μg/mL each of leupeptin, pepstatin, and aprotinin. Insect cell lysate containing c-Src protein was incubated with these beads for 3 to 4 hours at 4° C. with rotation. At the end of the lysate incubation, the beads were rinsed three times in lysis buffer, resuspended in lysis buffer containing 10% glycerol, and frozen. These latex beads were thawed, rinsed three times in assay buffer (40 mM Tris, pH 7.5, 5 mM […]) and suspended in the same buffer. […] The filters were then punched, counted in a liquid scintillation counter, and the data examined for inhibitory activity in comparison to a known inhibitor such as erbstatin. […]", "data": [{"compound": "CC1CN(c2ccc(Nc3ncc4ccc(=O)n(C5CCCCC5)c4n3)cc2)CC(C)N1CCO", "note": "(stereo not shown) [Example 143, 8-Cyclohexyl-2-{4-[4-(2-hydroxy-ethyl)-3,5-dimethyl-piperazin-1-yl]-phenylamino}-8H-pyrido[2,3-d]pyrimidin-7-one]", "values": [{"measurement": "IC50", "result": 1850, "unit": "nM"}]}]}
